Our source for the GI50 and TGI values is PubChem BioAssay (NCI).

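96-well plates; 48 h exposure; 5 concentrations. Endpoints by linear interpolation between flanking doses. Not reached: highest tested concentration assigned. GI50 = concentration required for 50% inhibition of growth. TGI: total growth inhibition.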 Some results are limits rather than exact numbers.

Holding throughout (assay): inhibition of tumour cell growth, NCI panel, 48 h
Test [1] concerns HL-60(TB) leukemia.
The test system of test [2] is EKVX NSCLC.
The test system of test [3] is T-47D breast.
Test [4] has as its system MALME-3M melanoma.
Test [5] deals with SF-268 CNS.
In test [6] the test system is SK-MEL-5 melanoma.
Test [7] deals with HCT-15 colon.
Test [8] concerns A549 NSCLC.
Test [9] has as its system COLO 205 colon.

For `NC(=O)NS(=O)(=O)c1ccc(N2N=C(C(F)(F)F)CC2c2cc(C(F)(F)F)cc(C(F)(F)F)c2)cc1` (configuration not stated), the GI50 in test [1] was 3.89 µM; in test [2] it was 2.82 µM; in [3], 3.73 µM; in [4], 13.9 µM; in test [5], 2.96 µM; in [6], 3.07 µM. The GI50 in test [7] was 2.99 µM; in test [8], 3.36 µM; in [9], 2.96 µM. Moreover, the TGI in test [1] is over 100 µM; in test [2], 11.3 µM; in test [3], 17.2 µM; in [4], 39.9 µM; in test [5], 12.3 µM; in test [6], 12 µM. In addition, the results for the TGI in test [7], in test [8] and in test [9] were 13.6 µM, 13.5 µM and 12 µM, respectively.
Regarding `C[N+]1=C(/C=C/c2ccc(O)c3ncccc23)C(C)(C)c2ccccc21`, the GI50 was 2.73 µM in test [1]; 2.01 µM in test [2]; 2.94 µM in test [3]; 2.01 µM in [4]; 2.73 µM in test [5]; 2.26 µM in test [6]. The figures for the GI50 in test [7], in test [8] and in test [9] were 0.893 µM, 2.96 µM and 2.3 µM, respectively. The TGI turned out to be 8.04 µM in test [1]; 7.16 µM in [2]; 14.2 µM in [3]; 5.43 µM in test [4]; 14.1 µM in test [5]; 5.71 µM in test [6]. Moreover, the TGI in test [7] turned out to be 15.1 µM; in test [8], 13.4 µM; in [9], 6.11 µM.
On to `COc1cc2cc(Oc3ccc(NC(=O)Nc4ccc(Cl)c(C(F)(F)F)c4)cc3)c(C)nc2cc1OCCN1CCOCC1`, for which the GI50 in [1] was 2.32 µM; in [2], 2.07 µM; in [3], 1.32 µM; in test [4], 1.52 µM; in test [5], 2.59 µM; in test [6] it was 1.14 µM. Besides, the values for the GI50 in test [7], in [8] and in [9] were 1.45 µM, 2.13 µM and 1.63 µM, respectively. Further, the TGI in test [1] worked out at 7.55 µM; in test [2] it was 13.7 µM; in test [3] it was 5.2 µM; in [4] it was 3.27 µM; in [5], 8.44 µM; in test [6], 2.37 µM. Further, the TGI in [7] was 3.18 µM; in [8] it was over 100 µM; in [9] it was 3.78 µM.
As for `COC(=O)Nc1nc2ccc(Oc3ccc(NC(=O)Nc4cc(C(F)(F)F)ccc4F)cc3)cc2s1`, the GI50 in test [1] is over 13.5 µM; in test [2] it was over 14.7 µM; in test [3], over 18 µM; in test [4] it was 0.343 µM; in test [5], 8.5 µM; in test [6], over 25 µM. Further, the GI50 in test [7] is 24.3 µM; in test [8], 15 µM; in test [9] it was over 25 µM. Further, the TGI in test [1], in [2], in test [3], in [4], in test [5] and in test [6] was over 25 µM in each case. Besides, the TGI in test [7], in test [8] and in [9] was over 25 µM in each case.
As for `Cc1cc2c(cc1Cl)SC1=NN(C)S(=O)N1S2(=O)=O` (configuration not stated), the GI50 in [1], in [2], in test [3], in test [4], in [5] and in test [6] was over 100 µM each time. Also, the GI50 in [7], in test [8] and in test [9] was over 100 µM in each case. For the same compound, the TGI in test [1], in [2], in test [3], in test [4], in test [5] and in test [6] was over 100 µM in each case. The TGI in [7], in test [8] and in [9] was over 100 µM each time.
As to `COc1ccc2c(c1)CCCN2c1c2ccccc2nc2ccccc12`, the GI50 in test [1] is 0.298 µM; in test [2] it was 0.932 µM; in [3], 0.662 µM; in test [4], 4.26 µM; in test [5] it was 0.933 µM; in test [6], 0.35 µM. Besides, the GI50 in [7] was 0.314 µM; in [8], 0.418 µM; in [9], 0.269 µM. In addition, the TGI in test [1] was 1.09 µM; in test [2] it was over 100 µM; in test [3], over 100 µM; in test [4] it was over 100 µM; in test [5] it was over 100 µM; in test [6], 1.66 µM. Moreover, the results for the TGI in [7], in [8] and in test [9] were 25.6 µM, over 100 µM and 0.849 µM, respectively.
For the compound `O=C(O)c1nn(-c2ccccc2-c2n[nH]c(=O)[nH]c2=O)c(=O)[nH]c1=O`, the TGI in test [1], in [2], in test [3], in [4], in [5] and in [6] was over 100 µM in each case. In addition, the TGI in test [7], in [8] and in test [9] was over 100 µM in each case.
